Experimental data from patent US4439426A, “Semisynthetic macrolidic antibiotics, intermediate compounds for their preparation and related pharmaceutical compositions containing them” (priority 1981, dated 1984).
Values after ≈ are worked out from the molar mass of the structure shown.

Key:
[1] = tested on: Staphylococcus aureus ATCC 6538 P LRP 39; test: Bacteriostatic power in liquid medium (MIC); assay type: cell-based; conditions: Staphylococcus aureus, ATCC6538; liquid medium; read-out: Minimum inhibiting concentration
Excerpt: (§1) the bacteriostatic power, expressed as the minimum inhibiting concentration (MIC) against both aerobic and anaerobic, Gram positive and Gram negative, bacterial stocks: the related results are reported in the tables 2 and 3.

[2] = tested on: Streptococcus pyogenes ATCC 8668 LRP 34; test: Bacteriostatic power in liquid medium (MIC); assay type: cell-based; conditions: Streptococcus pyogenes, ATCC8668; liquid medium; read-out: Minimum inhibiting concentration
Excerpt: as §1

[3] = tested on: Streptococcus pneumoniae ATCC 6303 LRP 35; test: Bacteriostatic power in liquid medium (MIC); assay type: cell-based; conditions: Streptococcus pneumoniae, ATCC6303; liquid medium; read-out: Minimum inhibiting concentration
Excerpt: as §1

[4] = tested on: Corynebacterium diphteriae LRP 24; test: Bacteriostatic power in liquid medium (MIC); assay type: cell-based; conditions: Corynebacterium, LRP24; liquid medium; read-out: Minimum inhibiting concentration
Excerpt: as §1

[5] = tested on: Streptococcus faecalis subs. zymogenes ATCC 12958 LRP 61; test: Bacteriostatic power in liquid medium (MIC); assay type: cell-based; conditions: Enterococcus faecalis, ATCC12958; liquid medium; read-out: Minimum inhibiting concentration
Excerpt: as §1

[6] = tested on: Staphylococcus aureus ATCC 6538 P LRP 39; test: Minimum bactericidal concentration (MBC); assay type: cell-based
Excerpt: (§2) the bacterial power, expressed as the minimum bactericidal power (MBC) against some Gram positive aerobic stocks (table 5).

[7] = tested on: Streptococcus pyogenes ATCC 8668 LRP 34; test: Minimum bactericidal concentration (MBC); assay type: cell-based
Excerpt: as §2

[8] = tested on: Streptococcus faecalis subs. zymogenes LRP 61; test: Minimum bactericidal concentration (MBC); assay type: cell-based
Excerpt: as §2

[9] = tested on: Streptococcus pneumoniae ATCC 6303 LRP 35; test: Minimum bactericidal concentration (MBC); assay type: cell-based
Excerpt: as §2

[10] = tested on: Corynebacterium diphteriae LRP 24; test: Minimum bactericidal concentration (MBC); assay type: cell-based
Excerpt: as §2

[11] = tested on: Clostridium perfrigens ATCC 3624 LRP 206; test: microbe, parasite or virus in culture; assay type: cell-based; conditions: ATCC3624, solid medium, anaerobic, read-out: Minimum inhibiting concentration
Excerpt: as §1

[12] = tested on: Salmonella typhy LRP 8; test: microbe, parasite or virus in culture; assay type: cell-based; conditions: LRP8, solid medium, read-out: Minimum inhibiting concentration
Excerpt: as §1

[13] = tested on: Bacillus subtilis LRP 25; test: Bacteriostatic power in solid medium (MIC); assay type: cell-based; conditions: Bacillus subtilis, LRP25; solid medium; read-out: Minimum inhibiting concentration
Excerpt: as §1

[14] = tested on: Streptococcus pneumoniae ATCC 6303 LRP 52; test: Bacteriostatic power in solid medium (MIC); assay type: cell-based; conditions: Streptococcus pneumoniae, ATCC6303; solid medium; read-out: Minimum inhibiting concentration
Excerpt: as §1

[15] = tested on: Streptococcus pyogenes ATCC 8668 LRP 197; test: Bacteriostatic power in solid medium (MIC); assay type: cell-based; conditions: Streptococcus pyogenes, ATCC8668; solid medium; read-out: Minimum inhibiting concentration
Excerpt: as §1

[16] = tested on: Pseudomonas aeruginosa LRP 9; test: Bacteriostatic power in solid medium (MIC); assay type: cell-based; conditions: Pseudomonas aeruginosa, LRP9; solid medium; read-out: Minimum inhibiting concentration
Excerpt: as §1

[17] = tested on: Staphylococcus aureus ATCC 14154 LRP 78; test: Bacteriostatic power in solid medium (MIC); assay type: cell-based; conditions: Staphylococcus aureus, ATCC14154; solid medium; Erythromycin resistant; read-out: Minimum inhibiting concentration
Excerpt: as §1

[18] = tested on: Fusobacteriumnecrophroum ATCC 27852 LRP 210; test: Bacteriostatic power in solid medium (MIC); assay type: cell-based; conditions: solid medium; anaerobic; read-out: Minimum inhibiting concentration
Excerpt: as §1

[19] = tested on: Klelsiella pneumoniae LRP 54; test: Bacteriostatic power in solid medium (MIC); assay type: cell-based; conditions: solid medium; read-out: Minimum inhibiting concentration
Excerpt: as §1

[20] = tested on: Micrococcus luteus ATCC 15957 LRP 193; test: Bacteriostatic power in solid medium (MIC); assay type: cell-based; conditions: Micrococcus luteus, ATCC15957; solid medium; Erythromycin resistant; read-out: Minimum inhibiting concentration
Excerpt: as §1

[21] = tested on: Streptococcus pyogenes ATCC 8668 LRP 34; test: Bacteriostatic power in solid medium (MIC); assay type: cell-based; conditions: Streptococcus pyogenes, ATCC8668; solid medium; read-out: Minimum inhibiting concentration
Excerpt: as §1

[22] = tested on: Staphylococcus aureus ATCC 6538P LRP 14; test: Bacteriostatic power in solid medium (MIC); assay type: cell-based; conditions: Staphylococcus aureus, ATCC6538P; solid medium; Penycilline resistant; read-out: Minimum inhibiting concentration
Excerpt: as §1

[23] = tested on: Streptococcus faecalis subsp. zymogenes ATCC 12958 LRP 61; test: Bacteriostatic power in solid medium (MIC); assay type: cell-based; conditions: Enterococcus faecalis, ATCC12958; solid medium; read-out: Minimum inhibiting concentration
Excerpt: as §1

[24] = tested on: Streptococcus pneumoniae ATCC 6303 LRP 35; test: Bacteriostatic power in solid medium (MIC); assay type: cell-based; conditions: Streptococcus pneumoniae, ATCC6303; solid medium; read-out: Minimum inhibiting concentration
Excerpt: as §1

[25] = tested on: Streptococcus pneumoniae ATCC 6303 LRP 53; test: Bacteriostatic power in solid medium (MIC); assay type: cell-based; conditions: Streptococcus pneumoniae, ATCC6303; solid medium; read-out: Minimum inhibiting concentration
Excerpt: as §1

[26] = tested on: Neisseria gonorrhoeae ATCC 19424 LRP 214; test: Bacteriostatic power in solid medium (MIC); assay type: cell-based; conditions: Neisseria gonorrhoeae, ATCC19424; solid medium; read-out: Minimum inhibiting concentration
Excerpt: as §1

[27] = tested on: Haemophilus influenzae ATCC 19418 LRP 213; test: Bacteriostatic power in solid medium (MIC); assay type: cell-based; conditions: Haemophilus influenzae, ATCC19418; solid medium; read-out: Minimum inhibiting concentration
Excerpt: as §1

[28] = tested on: Micrococcus luteus ATCC 9341 LRP 6; test: Bacteriostatic power in solid medium (MIC); assay type: cell-based; conditions: Micrococcus luteus, ATCC9341; solid medium; read-out: Minimum inhibiting concentration
Excerpt: as §1

[29] = tested on: Corynebacterium diphteriae LRP 24; test: Bacteriostatic power in solid medium (MIC); assay type: cell-based; conditions: Corynebacterium, LRP24; solid medium; read-out: Minimum inhibiting concentration
Excerpt: as §1

[30] = tested on: Acholeplasma laidlawii ATCC 23206 LRP 204; test: Bacteriostatic power in solid medium (MIC); assay type: cell-based; conditions: Acholeplasma laidlawii, ATCC23206; solid medium; read-out: Minimum inhibiting concentration
Excerpt: as §1

[31] = tested on: Shigella sonnei LRP 5; test: Bacteriostatic power in solid medium (MIC); assay type: cell-based; conditions: LRP5, read-out: Minimum inhibiting concentration
Excerpt: as §1

[32] = tested on: Escherichia coli LRP 50; test: Bacteriostatic power in solid medium (MIC); assay type: cell-based; conditions: Escherichia coli, LRP50; solid medium; read-out: Minimum inhibiting concentration
Excerpt: as §1

[33] = tested on: Mycoplasma hominis I ATCC 14027 LRP 211; test: Bacteriostatic power in solid medium (MIC); assay type: cell-based; conditions: Metamycoplasma hominis, ATCC14027; solid medium; read-out: Minimum inhibiting concentration
Excerpt: as §1

[34] = tested on: Bacteroides fragilis ATCC 23745 LRP 205; test: Bacteriostatic power in solid medium (MIC); assay type: cell-based; conditions: Bacteroides fragilis, ATCC23745; solid medium; anaerobic; read-out: Minimum inhibiting concentration
Excerpt: as §1

[35] = tested on: Proteus vulgaris ATCC 6380 LRP 13; test: Bacteriostatic power in solid medium (MIC); assay type: cell-based; conditions: Proteus vulgaris, ATCC6380; solid medium; read-out: Minimum inhibiting concentration
Excerpt: as §1

[36] = tested on: Staphylococcus aureus ATCC 6538P LRP 39; test: Bacteriostatic power in solid medium (MIC); assay type: cell-based; conditions: Staphylococcus aureus, ATCC6538P; solid medium; read-out: Minimum inhibiting concentration
Excerpt: as §1

[37] = tested on: Streptococcus faecalis LRP 7; test: Bacteriostatic power in solid medium (MIC); assay type: cell-based; conditions: Enterococcus faecalis, LRP7; solid medium; read-out: Minimum inhibiting concentration
Excerpt: as §1

[38] = Stability in acidic environment at 25° C. (half-life of initial microbiological activity); assay type: physicochemical; conditions: aqueous solution
Procedure: Stability in acidic environnment at 25° C. of the novel
Note: t 1/2 represents the time for reducing to one half the initial powe
of the antibiotic determined by microbiological method through diffusion
on a plate using the test stock Microccocus luteus (Sarcina lutea) ATCC

CC[C@H]1OC(=O)[C@H](C)[C@@H](O[C@H]2C[C@@](C)(OC)[C@@H](O)[C@H](C)O2)[C@H](C)[C@@H](O[C@@H]2O[C@H](C)C[C@H](N(C)C)[C@H]2O)[C@](C)(O)C[C@](C)(F)C(=O)[C@H](C)[C@@H](O)[C@H]1C [P-80203, (8S)-8-fluoroerythromycin B]
MIC [1]: 0.097 µg/mL (≈ 0.132 µM)
MIC [2]: 0.024 µg/mL (≈ 0.0326 µM)
MIC [3]: 0.049 µg/mL (≈ 0.0666 µM)
MIC [4]: 0.012 µg/mL (≈ 0.0163 µM)
MIC [5]: 0.39 µg/mL (≈ 0.53 µM)
MBC/MIC [6]: 32
MBC ([6]; Staphylococcus aureus, ATCC6538, read-out: Minimum bactericidal concentration (MBC)): 3.12 µg/mL (≈ 4.24 µM)
MBC/MIC [7]: 8
MBC ([7]; Streptococcus pyogenes, ATCC8668, read-out: Minimum bactericidal concentration (MBC)): 0.195 µg/mL (≈ 0.265 µM)
MBC/MIC [8]: 8
MBC ([8]; Enterococcus faecalis, read-out: Minimum bactericidal concentration (MBC)): 3.12 µg/mL (≈ 4.24 µM)
MBC/MIC [9]: 1
MBC ([9]; Streptococcus pneumoniae, ATCC6303, read-out: Minimum bactericidal concentration (MBC)): 0.049 µg/mL (≈ 0.0666 µM)
MBC/MIC [10]: 4
MBC ([10]; Corynebacterium, LRP24, read-out: Minimum bactericidal concentration (MBC)): 0.049 µg/mL (≈ 0.0666 µM)
MIC [11]: 0.39 µg/mL (≈ 0.53 µM)
MIC [12]: 25 µg/mL (≈ 34 µM)
MIC [13]: 0.049 µg/mL (≈ 0.0666 µM)
MIC [14]: 0.024 µg/mL (≈ 0.0326 µM)
MIC [15]: 0.049 µg/mL (≈ 0.0666 µM)
MIC [16]: 25 µg/mL (≈ 34 µM)
MIC [17]: 25 µg/mL (≈ 34 µM)
MIC [18]: 3.12 µg/mL (≈ 4.24 µM)
MIC [19]: 25 µg/mL (≈ 34 µM)
MIC [20]: 25 µg/mL (≈ 34 µM)
MIC [21]: 0.024 µg/mL (≈ 0.0326 µM)
MIC [22]: 0.097 µg/mL (≈ 0.132 µM)
MIC [23]: 0.195 µg/mL (≈ 0.265 µM)
MIC [24]: 0.049 µg/mL (≈ 0.0666 µM)
MIC [25]: 0.024 µg/mL (≈ 0.0326 µM)
MIC [26]: 0.097 µg/mL (≈ 0.132 µM)
MIC [27]: 6.25 µg/mL (≈ 8.49 µM)
MIC [28]: 0.012 µg/mL (≈ 0.0163 µM)
MIC [29]: 0.006 µg/mL (≈ 0.00815 µM)
MIC [30]: 0.195 µg/mL (≈ 0.265 µM)
MIC [31]: 25 µg/mL (≈ 34 µM)
MIC [32]: 25 µg/mL (≈ 34 µM)
MIC [33]: 25 µg/mL (≈ 34 µM)
MIC [34]: 0.195 µg/mL (≈ 0.265 µM)
MIC [35]: 25 µg/mL (≈ 34 µM)
MIC [36]: 0.097 µg/mL (≈ 0.132 µM)
MIC [37]: 0.195 µg/mL (≈ 0.265 µM)
half-life ([38]; pH 2): 3 h
half-life ([38]; pH 3): 45 h
